{"source": "patent US20220117938A1", "about": "“COMBINATON THERAPY WITH A DON PRODRUG AND AN IMMUNE CHECKPOINT INHIBITOR” (DRACEN PHARMACEUTICALS, INC., priority 2019, published 2022)", "tested_on": "CT26.WT tumors", "assay": "Anti-tumor efficacy of Compound 1 by IV and SC routes in the CT26.WT model (Example 8)", "assay_type": "in vivo, mice", "method": "Female BALB/c mice were inoculated subcutaneously in the right flank with CT26.WT cells for tumor development. Six days after tumor inoculation, mice with tumor sizes ranging from 32-77 mm^3 (average tumor size 56 mm^3) were selected and assigned into 6 groups using stratified randomization with 8 mice per group based upon their tumor volumes. The treatments were started from the day of randomization (defined as D0), Group 1 was treated with Vehicle control, q.d.×5 days on (Mon-Fri)×4 cycles s.c.; Group 2 was treated with Compound 1, 0.7 mpk×5 days on (Mon-Fri)×4 cycles s.c.; Group 3 was treated with Compound 1, 1.4 mpk×5 days on (Mon-Fri)×4 cycles s.c.; Group 4 was treated with Compound 1, 4.5 mpk×3-days on (Mon, Wed, Fri)×4 cycles, iv; Group 5 was treated with Compound 1, 7 mpk×2-days on (Mon,Thu)×4 cycles, iv; Group 6 was treated with Compound 1, 14 mpk×1-day on (Mon)×4 cycles, iv. The tumor sizes were measured three times per week during the treatment. The entire study was terminated on D44 after start of the treatment. All treatments were well-tolerated without any adverse effects or significant body weight loss.", "key": {"[1]": {"conditions": "Group 4, 4.5 mpk iv Mon,Wed,Fri x4 cycles"}, "[2]": {"conditions": "Group 4, 4.5 mpk iv Mon,Wed,Fri x4 cycles, day 16"}, "[3]": {"conditions": "Group 5, 7 mpk iv Mon,Thu x4 cycles"}, "[4]": {"conditions": "Group 5, 7 mpk iv Mon,Thu x4 cycles, day 16"}, "[5]": {"conditions": "Group 6, 14 mpk iv Mon x4 cycles"}, "[6]": {"conditions": "Group 6, 14 mpk iv Mon x4 cycles, day 16"}}, "data": [{"smiles": "CC(=O)N[C@@H](Cc1c[nH]c2ccccc12)C(=O)N[C@@H](CCC(=O)C=[N+]=[N-])C(=O)OC(C)C", "note": "[Compound 1, Isopropyl (S)-2-((S)-2-acetamido-3-(1H-indol-3-yl)propanamido)-6-diazo-5-oxohexanoate]", "values": [{"measurement": "Tumor volume", "setting": "Group 3, 1.4 mpk s.c. Mon-Fri x4 cycles, day 16", "result": "282 ± 52", "unit": "mm^3"}, {"measurement": "Tumor volume", "setting": "Group 3, 1.4 mpk s.c. Mon-Fri x4 cycles, day 18", "result": "292 ± 49", "unit": "mm^3"}, {"measurement": "Tumor volume", "setting": "Group 3, 1.4 mpk s.c. Mon-Fri x4 cycles, day 21", "result": "406 ± 85", "unit": "mm^3"}, {"measurement": "Tumor volume", "setting": "Group 3, 1.4 mpk s.c. Mon-Fri x4 cycles, day 23", "result": "484 ± 103", "unit": "mm^3"}, {"measurement": "Tumor volume", "setting": "Group 3, 1.4 mpk s.c. Mon-Fri x4 cycles, day 25", "result": "539 ± 119", "unit": "mm^3"}, {"measurement": "Tumor volume", "setting": "Group 3, 1.4 mpk s.c. Mon-Fri x4 cycles, day 28", "result": "853 ± 163", "unit": "mm^3"}, {"measurement": "Tumor volume", "setting": "Group 3, 1.4 mpk s.c. Mon-Fri x4 cycles, day 30", "result": "1372 ± 230", "unit": "mm^3"}, {"measurement": "ILS", "setting": "[1]", "result": 61.1, "unit": "%"}, {"measurement": "MST", "setting": "[1]", "result": 29, "unit": "days"}, {"measurement": "RTV at day 16", "setting": "[1]", "result": "8.92 ± 1.58"}, {"measurement": "Tumor volume", "setting": "Group 4, 4.5 mpk iv Mon,Wed,Fri x4 cycles, day 0", "result": "56 ± 3", "unit": "mm^3"}, {"measurement": "Tumor volume", "setting": "Group 4, 4.5 mpk iv Mon,Wed,Fri x4 cycles, day 2", "result": "70 ± 6", "unit": "mm^3"}, {"measurement": "Tumor volume", "setting": "Group 4, 4.5 mpk iv Mon,Wed,Fri x4 cycles, day 4", "result": "92 ± 11", "unit": "mm^3"}, {"measurement": "Tumor volume", "setting": "Group 4, 4.5 mpk iv Mon,Wed,Fri x4 cycles, day 7", "result": "126 ± 16", "unit": "mm^3"}, {"measurement": "Tumor volume", "setting": "Group 4, 4.5 mpk iv Mon,Wed,Fri x4 cycles, day 9", "result": "168 ± 24", "unit": "mm^3"}, {"measurement": "Tumor volume", "setting": "Group 4, 4.5 mpk iv Mon,Wed,Fri x4 cycles, day 11", "result": "223 ± 40", "unit": "mm^3"}, {"measurement": "Tumor volume", "setting": "Group 4, 4.5 mpk iv Mon,Wed,Fri x4 cycles, day 14", "result": "427 ± 73", "unit": "mm^3"}, {"measurement": "T/C", "setting": "[2]", "result": 28.57, "unit": "%"}, {"measurement": "TGI", "setting": "[2]", "result": 73.09, "unit": "%"}, {"measurement": "Tumor volume", "setting": "[2]", "result": "503 ± 94", "unit": "mm^3"}, {"measurement": "Tumor volume", "setting": "Group 4, 4.5 mpk iv Mon,Wed,Fri x4 cycles, day 18", "result": "648 ± 148", "unit": "mm^3"}, {"measurement": "Tumor volume", "setting": "Group 4, 4.5 mpk iv Mon,Wed,Fri x4 cycles, day 21", "result": "948 ± 230", "unit": "mm^3"}, {"measurement": "ILS", "setting": "[3]", "result": 61.1, "unit": "%"}, {"measurement": "MST", "setting": "[3]", "result": 29, "unit": "days"}, {"measurement": "RTV at day 16", "setting": "[3]", "result": "7.58 ± 1.97"}, {"measurement": "Tumor volume", "setting": "Group 5, 7 mpk iv Mon,Thu x4 cycles, day 0", "result": "56 ± 4", "unit": "mm^3"}, {"measurement": "Tumor volume", "setting": "Group 5, 7 mpk iv Mon,Thu x4 cycles, day 2", "result": "71 ± 9", "unit": "mm^3"}, {"measurement": "Tumor volume", "setting": "Group 5, 7 mpk iv Mon,Thu x4 cycles, day 4", "result": "78 ± 11", "unit": "mm^3"}, {"measurement": "Tumor volume", "setting": "Group 5, 7 mpk iv Mon,Thu x4 cycles, day 7", "result": "142 ± 26", "unit": "mm^3"}, {"measurement": "Tumor volume", "setting": "Group 5, 7 mpk iv Mon,Thu x4 cycles, day 9", "result": "166 ± 37", "unit": "mm^3"}, {"measurement": "Tumor volume", "setting": "Group 5, 7 mpk iv Mon,Thu x4 cycles, day 11", "result": "185 ± 45", "unit": "mm^3"}, {"measurement": "Tumor volume", "setting": "Group 5, 7 mpk iv Mon,Thu x4 cycles, day 14", "result": "395 ± 114", "unit": "mm^3"}, {"measurement": "T/C", "setting": "[4]", "result": 24.28, "unit": "%"}, {"measurement": "TGI", "setting": "[4]", "result": 76.00, "unit": "%"}, {"measurement": "Tumor volume", "setting": "[4]", "result": "455 ± 131", "unit": "mm^3"}, {"measurement": "Tumor volume", "setting": "Group 5, 7 mpk iv Mon,Thu x4 cycles, day 18", "result": "518 ± 135", "unit": "mm^3"}, {"measurement": "Tumor volume", "setting": "Group 5, 7 mpk iv Mon,Thu x4 cycles, day 21", "result": "878 ± 272", "unit": "mm^3"}, {"measurement": "ILS", "setting": "[5]", "result": 47.2, "unit": "%"}, {"measurement": "MST", "setting": "[5]", "result": 26.5, "unit": "days"}, {"measurement": "RTV at day 16", "setting": "[5]", "result": "7.02 ± 0.87"}, {"measurement": "Tumor volume", "setting": "Group 6, 14 mpk iv Mon x4 cycles, day 0", "result": "56 ± 5", "unit": "mm^3"}, {"measurement": "Tumor volume", "setting": "Group 6, 14 mpk iv Mon x4 cycles, day 2", "result": "69 ± 7", "unit": "mm^3"}, {"measurement": "Tumor volume", "setting": "Group 6, 14 mpk iv Mon x4 cycles, day 4", "result": "78 ± 5", "unit": "mm^3"}, {"measurement": "Tumor volume", "setting": "Group 6, 14 mpk iv Mon x4 cycles, day 7", "result": "163 ± 24", "unit": "mm^3"}, {"measurement": "Tumor volume", "setting": "Group 6, 14 mpk iv Mon x4 cycles, day 9", "result": "160 ± 22", "unit": "mm^3"}, {"measurement": "Tumor volume", "setting": "Group 6, 14 mpk iv Mon x4 cycles, day 11", "result": "204 ± 29", "unit": "mm^3"}, {"measurement": "Tumor volume", "setting": "Group 6, 14 mpk iv Mon x4 cycles, day 14", "result": "425 ± 72", "unit": "mm^3"}, {"measurement": "T/C", "setting": "[6]", "result": 22.49, "unit": "%"}, {"measurement": "TGI", "setting": "[6]", "result": 78.92, "unit": "%"}, {"measurement": "Tumor volume", "setting": "[6]", "result": "406 ± 74", "unit": "mm^3"}, {"measurement": "Tumor volume", "setting": "Group 6, 14 mpk iv Mon x4 cycles, day 18", "result": "578 ± 89", "unit": "mm^3"}, {"measurement": "Tumor volume", "setting": "Group 6, 14 mpk iv Mon x4 cycles, day 21", "result": "1035 ± 150", "unit": "mm^3"}, {"measurement": "Tumor volume", "setting": "Group 6, 14 mpk iv Mon x4 cycles, day 23", "result": "1216 ± 177", "unit": "mm^3"}, {"measurement": "Tumor volume", "setting": "Group 6, 14 mpk iv Mon x4 cycles, day 25", "result": "1684 ± 231", "unit": "mm^3"}]}]}
